Where “and” joins values, the source holds several entries; their conditions need not be identical. Identical values can stand only once. Toxic doses and inconclusive results are not listed.
Tested on: L1210 leukemia ip in BDF1 mice, survival T/C
Assay: NCI In Vivo Anticancer Drug Screen. Data for tumor model L1210 Leukemia (intraperitoneal) in B6D2F1 (BDF1) mice
Conditions: endpoint: mean survival time, higher = longer survival
Procedure, shortened: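 Transplantable tumor model; survival measured in treated vs vehicle control mice. Value = treated/control.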

[1] = dose: 100.0 mg/kg/injection, schedule: Q01DX009 (ip), vehicle: Klucel (hydroxypropylcellulose) (HPC)
[2] = dose: 100.0 mg/kg/injection, schedule: Q04DX003 (ip), vehicle: Klucel (hydroxypropylcellulose) (HPC)
[3] = dose: 100.0 mg/kg/injection, schedule: Q04DX002 (ip), vehicle: saline with Tween-80
[4] = dose: 200.0 mg/kg/injection, schedule: Q04DX002 (ip), vehicle: saline with Tween-80
[5] = dose: 400.0 mg/kg/injection, schedule: Q04DX002 (ip), vehicle: saline with Tween-80
[6] = dose: 100.0 mg/kg/injection, schedule: Q01DX001 (ip), vehicle: Klucel (hydroxypropylcellulose) (HPC)
[7] = dose: 200.0 mg/kg/injection, schedule: Q01DX001 (ip), vehicle: Klucel (hydroxypropylcellulose) (HPC)
[8] = dose: 200.0 mg/kg/injection, schedule: Q04DX003 (ip), vehicle: Klucel (hydroxypropylcellulose) (HPC)
[9] = dose: 400.0 mg/kg/injection, schedule: Q04DX003 (ip), vehicle: Klucel (hydroxypropylcellulose) (HPC)
[10] = dose: 200.0 mg/kg/injection, schedule: Q01DX009 (ip), vehicle: Klucel (hydroxypropylcellulose) (HPC)
[11] = dose: 400.0 mg/kg/injection, schedule: Q01DX009 (ip), vehicle: Klucel (hydroxypropylcellulose) (HPC)
[12] = dose: 100.0 mg/kg/injection, schedule: Q01DX009 (ip), vehicle: saline with Tween-80

Compound: C[C@@H]1C[C@H]2[C@@H]3CCC4=CC(=O)C=C[C@]4(C)[C@@]3(F)[C@@H](O)C[C@]2(C)[C@@]1(O)C(=O)CO
- T/C (dose: 3.12 mg/kg/injection, schedule: Q01DX009 (ip), vehicle: Klucel (hydroxypropylcellulose) (HPC)): 102 % of control
- T/C (dose: 6.25 mg/kg/injection, schedule: Q01DX009 (ip), vehicle: Klucel (hydroxypropylcellulose) (HPC)): 95 % of control
- T/C (dose: 10.0 mg/kg/injection, schedule: Q01DX Z (sc), vehicle: steriod suspending solution): 112 % of control
- T/C (dose: 12.5 mg/kg/injection, schedule: Q01DX009 (ip), vehicle: Klucel (hydroxypropylcellulose) (HPC)): 98 % of control
- T/C (dose: 12.5 mg/kg/injection, schedule: Q01DX009 (ip), vehicle: saline): 111 % of control
- T/C (dose: 25.0 mg/kg/injection, schedule: Q01DX009 (ip), vehicle: Klucel (hydroxypropylcellulose) (HPC)): 96 % of control
- T/C (dose: 25.0 mg/kg/injection, schedule: Q01DX009 (ip), vehicle: saline sonified): 99 % of control
- T/C (dose: 25.0 mg/kg/injection, schedule: Q01DX009 (ip), vehicle: saline): 96 % of control
- T/C (dose: 25.0 mg/kg/injection, schedule: Q01DX Z (sc), vehicle: steriod suspending solution): 112 % of control
- T/C (dose: 37.5 mg/kg/injection, schedule: Q04DX003 (ip), vehicle: saline with Tween-80): 93 % of control
- T/C (dose: 50.0 mg/kg/injection, schedule: Q01DX009 (ip), vehicle: Klucel (hydroxypropylcellulose) (HPC)): 91 % of control
- T/C (dose: 50.0 mg/kg/injection, schedule: Q01DX009 (ip), vehicle: saline sonified): 99 % of control
- T/C (dose: 50.0 mg/kg/injection, schedule: Q01DX009 (ip), vehicle: saline): 107 % of control
- T/C (dose: 50.0 mg/kg/injection, schedule: Q01DX Z (sc), vehicle: steriod suspending solution): 110 % of control
- T/C (dose: 75.0 mg/kg/injection, schedule: Q04DX003 (ip), vehicle: saline with Tween-80): 95 % of control
- T/C [1]: 91 % of control
- T/C (dose: 100.0 mg/kg/injection, schedule: Q01DX009 (ip), vehicle: saline sonified): 106 % of control
- T/C [2]: 102 % of control

Compound: O=C1CC(C(=O)O)C2(CCCCC2)O1 (stereo unspecified)
- T/C [3]: 104 % of control
- T/C [4]: 101 % of control
- T/C [5]: 101 % of control

Compound: CC(=O)OC1CCC2(C)C(=CCC3C2CCC2(C)C3CC(SCC(=O)O)C2SCC(=O)O)C1 (stereo unspecified)
- T/C (dose: 100.0 mg/kg/injection, schedule: Q04DX003 (sc), vehicle: steriod suspending solution): 98 % of control
- T/C (dose: 200.0 mg/kg/injection, schedule: Q04DX003 (sc), vehicle: steriod suspending solution): 106 % of control
- T/C (dose: 400.0 mg/kg/injection, schedule: Q04DX003 (sc), vehicle: steriod suspending solution): 106 % of control

Compound: CCC(C)C(NN)C(=O)O (stereo unspecified)
- T/C (dose: 12.0 mg/kg/injection, schedule: Q01DX Z (ip), vehicle: carboxymethylcellulose (CMC)): 113 % of control
- T/C (dose: 25.0 mg/kg/injection, schedule: Q01DX Z (ip), vehicle: carboxymethylcellulose (CMC)): 112 % of control
- T/C (dose: 50.0 mg/kg/injection, schedule: Q01DX Z (ip), vehicle: carboxymethylcellulose (CMC)): 110 % of control
- T/C (dose: 100.0 mg/kg/injection, schedule: Q01DX Z (ip), vehicle: carboxymethylcellulose (CMC)): 118 % of control
- T/C (dose: 200.0 mg/kg/injection, schedule: Q01DX015 (ip), vehicle: carboxymethylcellulose (CMC)): 104 % of control

Compound: COc1cc(C(=O)O)ccc1OCCNS(C)(=O)=O
- T/C [6]: 96 % of control
- T/C [2]: 105 % of control
- T/C [7]: 102 % of control
- T/C [8]: 96 % of control
- T/C (dose: 400.0 mg/kg/injection, schedule: Q01DX001 (ip), vehicle: Klucel (hydroxypropylcellulose) (HPC)): 100 % of control
- T/C [9]: 94 % of control

Compound: Cn1c(Cl)c(C=O)c2ccccc21
- T/C (dose: 50.0 mg/kg/injection, schedule: Q04DX002 (ip), vehicle: Klucel (hydroxypropylcellulose) (HPC)): 90 % of control
- T/C (dose: 100.0 mg/kg/injection, schedule: Q04DX002 (ip), vehicle: Klucel (hydroxypropylcellulose) (HPC)): 93 % of control
- T/C (dose: 200.0 mg/kg/injection, schedule: Q04DX002 (ip), vehicle: Klucel (hydroxypropylcellulose) (HPC)): 97 % of control

Compound: CCOCCOCCOC(C)Oc1ccc(Cl)cc1Cl (stereo unspecified)
- T/C [3]: 97 % of control
- T/C [4]: 94 % of control
- T/C [5]: 100 % of control

Compound: CC(Oc1cc(Cl)ccc1Cl)C(=O)O (stereo unspecified)
- T/C (dose: 50.0 mg/kg/injection, schedule: Q04DX003 (ip), vehicle: Klucel (hydroxypropylcellulose) (HPC)): 114 % of control
- T/C [1]: 110 % of control
- T/C [2]: 105 % of control
- T/C [10]: 114 % of control
- T/C [8]: 104 % of control
- T/C [11]: 108 % of control

Compound: C=CCc1cn(C2OC(COC(=O)c3ccc(Cl)cc3)C(OC(=O)c3ccc(Cl)cc3)C2O)c(=O)[nH]c1=O (stereo unspecified)
- T/C (dose: 100.0 mg/kg/injection, schedule: Q01DX005 (ip), vehicle: saline): 90 % of control
- T/C (dose: 200.0 mg/kg/injection, schedule: Q01DX005 (ip), vehicle: saline): 91 % of control

Compound: COc1cc2cc3c4ccccc4cc[n+]3c(C)c2cc1OC (tested in a mixture with another compound)
- T/C (dose: 2.5 mg/kg/injection, schedule: Q01DX009 (ip), vehicle: saline): 102 % of control
- T/C (dose: 5.0 mg/kg/injection, schedule: Q01DX009 (ip), vehicle: saline): 110 % of control
- T/C (dose: 10.0 mg/kg/injection, schedule: Q01DX009 (ip), vehicle: saline): 115 % of control
- T/C (dose: 20.0 mg/kg/injection, schedule: Q01DX009 (ip), vehicle: saline): 121 % of control
- T/C (dose: 40.0 mg/kg/injection, schedule: Q01DX009 (ip), vehicle: saline): 118 % of control

Compound: COc1ccc2c(c1)CCC2=O
- T/C (dose: 50.0 mg/kg/injection, schedule: Q01DX009 (ip), vehicle: saline with Tween-80): 112 % of control
- T/C [12]: 112 % of control
- T/C [2]: 91 % of control
- T/C [8]: 96 % of control

Compound: O=C(CC1OC1c1ccccc1)c1ccccc1 (stereo unspecified)
- T/C (dose: 50.0 mg/kg/injection, schedule: Q01DX001 (ip), vehicle: Klucel (hydroxypropylcellulose) (HPC)): 110 % of control
- T/C [6]: 100 % of control
- T/C (dose: 100.0 mg/kg/injection, schedule: Q04DX003 (ip), vehicle: other): 99 % of control
- T/C [7]: 102 % of control
- T/C (dose: 200.0 mg/kg/injection, schedule: Q04DX003 (ip), vehicle: other): 94 % of control
- T/C (dose: 400.0 mg/kg/injection, schedule: Q04DX003 (ip), vehicle: other): 101 % of control

Compound: Nc1n[nH]c(=O)[nH]1
- T/C (dose: 44.0 mg/kg/injection, schedule: Q03HX024 (ip), vehicle: saline): 108 % of control
- T/C (dose: 67.0 mg/kg/injection, schedule: Q03HX024 (ip), vehicle: saline): 107 % of control
- T/C (dose: 100.0 mg/kg/injection, schedule: Q01DX009 (ip), vehicle: saline): 115 % of control
- T/C (dose: 100.0 mg/kg/injection, schedule: Q03HX024 (ip), vehicle: saline): 112 % of control
- T/C (dose: 177.0 mg/kg/injection, schedule: Q01DX009 (ip), vehicle: saline): 120 % of control
- T/C (dose: 200.0 mg/kg/injection, schedule: Q01DX009 (ip), vehicle: saline): 121 % of control
- T/C (dose: 225.0 mg/kg/injection, schedule: Q03HX024 (ip), vehicle: saline): 153 % of control
- T/C (dose: 266.0 mg/kg/injection, schedule: Q01DX009 (ip), vehicle: saline): 180 % of control
- T/C (dose: 266.0 mg/kg/injection, schedule: Q04DX003 (ip), vehicle: saline): 104 % of control
- T/C (dose: 400.0 mg/kg/injection, schedule: Q01DX009 (ip), vehicle: saline): 185 % of control
- T/C (dose: 400.0 mg/kg/injection, schedule: Q04DX003 (ip), vehicle: saline): 113 % of control
- T/C (dose: 600.0 mg/kg/injection, schedule: Q01DX009 (ip), vehicle: saline): 164 % of control and 186 % of control
- T/C (dose: 600.0 mg/kg/injection, schedule: Q04DX003 (ip), vehicle: saline): 118 % of control

Compound: Cc1ccc(CNc2ccc(Br)cc2)cc1
- T/C [1]: 96 % of control
- T/C [2]: 101 % of control
- T/C [10]: 99 % of control
- T/C [8]: 102 % of control
- T/C [11]: 94 % of control
- T/C [9]: 101 % of control

Compound: O=C/C=C\c1ccccc1O
- T/C (dose: 100.0 mg/kg/injection, schedule: Q01DX001 (ip), vehicle: saline): 105 % of control
- T/C (dose: 200.0 mg/kg/injection, schedule: Q01DX001 (ip), vehicle: saline): 105 % of control

Compound: CCC1(c2ccccc2)C(=O)NC(=O)N(Cc2ccccc2)C1=O (stereo unspecified)
- T/C [12]: 109 % of control
- T/C [3]: 89 % of control
- T/C (dose: 200.0 mg/kg/injection, schedule: Q01DX009 (ip), vehicle: saline with Tween-80): 98 % of control
- T/C [4]: 95 % of control
- T/C (dose: 400.0 mg/kg/injection, schedule: Q01DX009 (ip), vehicle: saline with Tween-80): 98 % of control
- T/C [5]: 103 % of control

— PubChem BioAssay AID248 (DTP/NCI, 2004)
